Results as given in patent US10512268B2, “Herbicidal compounds” (Syngenta Participations AG, priority 2015, dated 2019).

Key:
Format in all cases: in vivo
Solanum nigrum (SOLNI) [1] = assay: Further testing, pre-emergence application; settings: 1000 g/h, after 13 days
Protocol: (§1) Seeds of a variety of test species are sown in standard soil in pots (Lolium perenne (LOLPE), Solanum nigrum (SOLNI), Amaranthus retoflexus (AMARE), Setaria faberi (SETFA), Echinochloa crus-galli (ECHCG), Ipomoea hederacea (IPOHE)). After cultivation for one day (pre-emergence) or after 8 days cultivation (post-emergence) under controlled conditions in a glasshouse (at 24/16° C., day/night; 14 hours light; 65% humidity), the plants are sprayed with an aqueous spray solution derived from the formulation of the technical active ingredient in acetone/water (50:50) solution containing 0.5% Tween 20 (polyoxyethelyene sorbitan monolaurate, CAS RN 9005-64-5). Compounds are applied at 1000 g/h unless otherwise stated. The test plants are then grown in a glasshouse under controlled conditions in a glasshouse (at 24/16° C., day/night; 14 hours light; 65% humidity) and watered twice daily. After 13 days for pre and post-emergence, the test is evaluated for the percentage damage caused to the plant. The biological activities are shown in the following table on a five point scale (5=80-100%; 4=60-79%; 3=40-59%; 2=20-39%; 1=0-19%).

Setaria faberi (SETFA) [2] = assay: Further testing, pre-emergence application; settings: 1000 g/h, after 13 days
Protocol: as §1

[3] = system: Amaranthus retoflexus (AMARE); assay: Further testing, pre-emergence application; settings: 1000 g/h, after 13 days
Protocol: as §1

[4] = system: Ipomoea hederacea (IPOHE); assay: Further testing, pre-emergence application; settings: 1000 g/h, after 13 days
Protocol: as §1

Lolium perenne (LOLPE) [5] = assay: Further testing, pre-emergence application; settings: 1000 g/h, after 13 days
Protocol: as §1

[6] = system: Echinochloa crus-galli (ECHCG); assay: Further testing, pre-emergence application; settings: 1000 g/h, after 13 days
Protocol: as §1

Solanum nigrum (SOLNI) [7] = assay: Further testing, post-emergence application; settings: 1000 g/h, after 13 days
Protocol: as §1

Setaria faberi (SETFA) [8] = assay: Further testing, post-emergence application; settings: 1000 g/h, after 13 days
Protocol: as §1

[9] = system: Amaranthus retoflexus (AMARE); assay: Further testing, post-emergence application; settings: 1000 g/h, after 13 days
Protocol: as §1

[10] = system: Ipomoea hederacea (IPOHE); assay: Further testing, post-emergence application; settings: 1000 g/h, after 13 days
Protocol: as §1

Lolium perenne (LOLPE) [11] = assay: Further testing, post-emergence application; settings: 1000 g/h, after 13 days
Protocol: as §1

[12] = system: Echinochloa crus-galli (ECHCG); assay: Further testing, post-emergence application; settings: 1000 g/h, after 13 days
Protocol: as §1

Sida spinosa (SIDSP) = assay: Comparative testing, glasshouse herbicide test, spray one day after sowing
Protocol: (§2) Seeds of a variety of test species are sown in standard soil in pots. After cultivation for one day under controlled conditions in a glasshouse (at 24/16° C., day/night; 14 hours light; 65% humidity), an aqueous spray solution derived from the formulation of the technical active ingredient in 0.6 ml acetone and 45 ml formulation solution containing 10.6% Emulsogen EL (Registry number 61791-12-6), 42.2% N-methyl pyrrolidone, 42.2% dipropylene glycol monomethyl ether (CAS RN 34590-94-8) and 0.2% X-77 (CAS RN 11097-66-8) is applied.
(§3) The test plants are then grown in a glasshouse under controlled conditions in a glasshouse (at 24/16° C., day/night; 14 hours light; 65% humidity) and watered twice daily. After 21 days, the test is evaluated (100=total damage to plant; 0=no damage to plant). Test plants (weed species) include: Alopecurus myosuroides (ALOMY), Bidens pilosa (BIDPI), Euphorbia heterophylla (EPHHL), Lolium perenne (LOLPE), Panicum milaceum (PANMI), Sida spinosa (SIDSP) and Stellaria media STEME).

[13] = system: Alopecurus myosuroides (ALOMY); assay: as above
Protocol: as §2, §3

[14] = system: Euphorbia heterophylla (EPHHL); assay: as above
Protocol: as §2, §3

Bidens pilosa (BIDPI) = assay: as above
Protocol: as §2, §3

Stellaria media (STEME) = assay: as above
Protocol: as §2, §3

Lolium perenne (LOLPE) [15] = assay: as above
Protocol: as §2, §3

Panicum milaceum (PANMI) = assay: as above
Protocol: as §2, §3

[16] = Rate 125, evaluated after 21 days
[17] = Rate 250, evaluated after 21 days

Cn1nnnc1NC(=O)c1nn(C)c(=O)c(C2CCCCC2)c1Cl [Compound 1.001]
percentage damage caused to the plant, five point scale (Solanum nigrum (SOLNI) [1]): 5 (5=80-100%) | percentage damage caused to the plant, five point scale (Setaria faberi (SETFA) [2]): 5 (5=80-100%) | percentage damage caused to the plant, five point scale [3]: 5 (5=80-100%) | percentage damage caused to the plant, five point scale [4]: 5 (5=80-100%) | percentage damage caused to the plant, five point scale (Lolium perenne (LOLPE) [5]): 5 (5=80-100%) | percentage damage caused to the plant, five point scale [6]: 5 (5=80-100%) | percentage damage caused to the plant, five point scale (Solanum nigrum (SOLNI) [7]): 5 (5=80-100%) | percentage damage caused to the plant, five point scale (Setaria faberi (SETFA) [8]): 5 (5=80-100%) | percentage damage caused to the plant, five point scale [9]: 5 (5=80-100%) | percentage damage caused to the plant, five point scale [10]: 5 (5=80-100%) | percentage damage caused to the plant, five point scale (Lolium perenne (LOLPE) [11]): 5 (5=80-100%) | percentage damage caused to the plant, five point scale [12]: 5 (5=80-100%) | damage to plant (100=total damage to plant; 0=no damage to plant) (Sida spinosa (SIDSP); [16]): 90 | damage to plant (100=total damage to plant; 0=no damage to plant) (Sida spinosa (SIDSP); [17]): 90 | damage to plant (100=total damage to plant; 0=no damage to plant) [13, 16]: 40 | damage to plant (100=total damage to plant; 0=no damage to plant) [13, 17]: 40 | damage to plant (100=total damage to plant; 0=no damage to plant) [14, 16]: 90 | damage to plant (100=total damage to plant; 0=no damage to plant) [14, 17]: 90 | damage to plant (100=total damage to plant; 0=no damage to plant) (Bidens pilosa (BIDPI); [16]): 100 | damage to plant (100=total damage to plant; 0=no damage to plant) (Bidens pilosa (BIDPI); [17]): 100 | damage to plant (100=total damage to plant; 0=no damage to plant) (Stellaria media (STEME); [16]): 100 | damage to plant (100=total damage to plant; 0=no damage to plant) (Stellaria media (STEME); [17]): 100 | damage to plant (100=total damage to plant; 0=no damage to plant) (Lolium perenne (LOLPE) [15]; [16]): 60 | damage to plant (100=total damage to plant; 0=no damage to plant) (Lolium perenne (LOLPE) [15]; [17]): 60 | damage to plant (100=total damage to plant; 0=no damage to plant) (Panicum milaceum (PANMI); [16]): 80 | damage to plant (100=total damage to plant; 0=no damage to plant) (Panicum milaceum (PANMI); [17]): 80
